pIC50: −log10 of the molar value.
Legend:
[1] = biological target: Mitogen-activated protein kinase 14 (Homo sapiens, UniProt Q16539); assay: Inhibitory concentration against Mitogen-activated protein kinase p38 alpha
[2] = biological target: Mitogen-activated protein kinase 10 (Homo sapiens, UniProt P53779); assay: Inhibitory concentration against c-Jun N-terminal kinase 3
[3] = biological target: Mitogen-activated protein kinase 8 (Homo sapiens, UniProt P45983); assay: Inhibitory concentration against c-Jun N-terminal kinase 1
Chain of Mitogen-activated protein kinase 8 (P45983 whole entry): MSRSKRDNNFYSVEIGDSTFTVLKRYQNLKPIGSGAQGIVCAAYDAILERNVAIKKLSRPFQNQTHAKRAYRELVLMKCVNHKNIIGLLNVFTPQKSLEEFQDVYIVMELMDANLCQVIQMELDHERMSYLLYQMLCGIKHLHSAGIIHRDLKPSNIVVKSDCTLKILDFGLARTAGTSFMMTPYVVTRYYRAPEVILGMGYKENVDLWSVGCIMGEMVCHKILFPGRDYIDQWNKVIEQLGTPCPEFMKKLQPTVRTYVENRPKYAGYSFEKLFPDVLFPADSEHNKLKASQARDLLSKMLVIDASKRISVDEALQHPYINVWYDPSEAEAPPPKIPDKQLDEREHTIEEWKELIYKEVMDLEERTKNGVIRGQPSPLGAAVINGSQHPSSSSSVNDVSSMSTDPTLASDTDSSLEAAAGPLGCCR

Chain of Mitogen-activated protein kinase 10 (P53779 whole entry): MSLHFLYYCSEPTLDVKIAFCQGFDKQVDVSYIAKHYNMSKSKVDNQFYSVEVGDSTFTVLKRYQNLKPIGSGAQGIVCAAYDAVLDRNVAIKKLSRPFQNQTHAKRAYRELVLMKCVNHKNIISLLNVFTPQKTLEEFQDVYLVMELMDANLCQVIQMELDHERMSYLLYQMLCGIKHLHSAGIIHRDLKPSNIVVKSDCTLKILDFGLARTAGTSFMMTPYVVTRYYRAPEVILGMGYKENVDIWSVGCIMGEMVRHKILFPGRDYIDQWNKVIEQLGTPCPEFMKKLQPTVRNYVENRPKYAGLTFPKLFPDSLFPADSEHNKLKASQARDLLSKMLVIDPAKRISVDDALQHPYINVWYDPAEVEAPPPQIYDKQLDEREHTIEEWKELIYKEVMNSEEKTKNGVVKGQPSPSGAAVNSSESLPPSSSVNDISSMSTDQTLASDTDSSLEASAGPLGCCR
Chain of Mitogen-activated protein kinase 14 (Q16539 whole entry): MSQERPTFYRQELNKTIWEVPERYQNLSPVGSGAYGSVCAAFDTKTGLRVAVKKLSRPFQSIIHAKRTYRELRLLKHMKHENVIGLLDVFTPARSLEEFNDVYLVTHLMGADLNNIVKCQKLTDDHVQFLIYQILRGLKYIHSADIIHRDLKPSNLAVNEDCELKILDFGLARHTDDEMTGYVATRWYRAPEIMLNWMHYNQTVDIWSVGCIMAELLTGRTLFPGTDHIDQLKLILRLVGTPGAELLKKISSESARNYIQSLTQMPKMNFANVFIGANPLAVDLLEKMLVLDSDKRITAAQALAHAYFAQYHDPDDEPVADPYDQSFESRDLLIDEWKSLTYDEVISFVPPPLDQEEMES

Structure (SMILES)	pIC50 [1]	pIC50 [2]	pIC50 [3]
O=C(O)c1cccc(-c2n[nH]c3cc(Nc4ccccc4Cl)ccc23)c1	7.62	8.28	7.21
COc1ccccc1Nc1ccc2c(-c3ccccc3)n[nH]c2c1	7.34	6.69	5.80
c1ccc(Nc2ccc3c(-c4ccccc4)n[nH]c3c2)cc1	7.52	7.32	< 5.00
Clc1ccccc1Nc1ccc2c(-c3ccccc3)n[nH]c2c1	7.74	7.52	5.27

Compounds with a higher pIC50 [1], results first:

pIC50 [1]	pIC50 [2]	pIC50 [3]	Structure (SMILES)
8.36	8.85	7.15	O=C(NC1CCNCC1)c1cccc(-c2n[nH]c3cc(Nc4ccccc4Cl)ccc23)c1
7.89	7.49	6.61	O=C(O)c1ccc(-c2n[nH]c3cc(Nc4ccccc4Cl)ccc23)cc1
8.43	8.47	6.64	O=C(NCCCN1CCOCC1)c1cccc(-c2n[nH]c3cc(Nc4ccccc4Cl)ccc23)c1
7.80	7.68	6.16	CN(C)CCNC(=O)c1cccc(-c2n[nH]c3cc(Nc4ccccc4Cl)ccc23)c1
8.49	8.48	7.09	NC(=O)c1cccc(-c2n[nH]c3cc(Nc4ccccc4Cl)ccc23)c1
8.06	8.72	7.35	CN(C)CCNC(=O)c1ccc(-c2n[nH]c3cc(Nc4ccccc4Cl)ccc23)cc1

Source: ChEMBL document CHEMBL1143651, “Design and synthesis of 6-anilinoindazoles as selective inhibitors of c-Jun N-terminal kinase-3” (Bioorg Med Chem Lett, 2005)
